Measurements: paper PMC10290043, “Pharmacokinetics, safety, and antitumor activity of talazoparib monotherapy in Chinese patients with advanced solid tumors” (Investigational New Drugs, 2023)

Key:
clinical = details: human, in vivo, po, 1 mg
Method: A single dose of talazoparib 1 mg was administered orally on Day –9. From Cycle 1 Day 1, patients received talazoparib 1 mg QD orally on a continuous basis at approximately the same time each day (preferably in the morning) until disease progression, death, unacceptable toxicity, or withdrawal of consent. Dose interruptions or reductions were not required unless toxicity persisted at grade 2 for ≥7 days. Daily dosing was paused for grade ≥3 hematologic toxicities. Supportive care including blood products was allowed as appropriate per local guidance. To minimize any drug-drug interaction effects relating to talazoparib exposure and potential alteration to efficacy, co-medication with P-glycoprotein (P-gp) inhibitors and inducers was prohibited for Cycle 1 when intensive PK assessments were scheduled after both single-dose and multiple-dose talazoparib administrations. After Cycle 1, only potent P-gp inhibitors were prohibited to accommodate more co-medication options.
To assess the single-dose PK profile, patients took talazoparib on Day –9 of a 9-day (216 h) lead-in period; blood samples were collected at pre-dose and at 0.5, 1, 2, 4, 8, 24, 48, 96, 168, and 216 h post-dose. For the steady-state PK profile, serial samples after multiple doses of talazoparib were collected on Day 22 of the first cycle at pre-dose and at 0.5, 1, 2, 4, 8, and 24 h post-dose. Prior to serial PK sampling (Cycle 1 Day –9, Cycle 1 Day 22), patients were required to fast for at least 8 h before dosing and they had to continue fasting for 2 h after dosing to control the variability due to food effect on Cmax. For the other PK sampling points, talazoparib could have been taken with or without food. On clinic visit days, talazoparib was administered after completion of a pre-dose blood sampling for PK and assessments. Blood samples of approximately 3 mL, to provide a minimum of 1.5 mL plasma, for measurement of talazoparib concentrations were collected.
Talazoparib PK parameters were calculated for each patient and each treatment, as applicable, using non-compartmental analysis of concentration-time data. Summary statistics were calculated by setting concentration values below the lower limit of quantification to zero.

[1] = design: method as in PMID 31489639; details: population PK model, 490 patients, cited from earlier work
[2] = design: method as in PMID 35907135; details: Japanese patients, cited from earlier work
[3] = system: advanced breast cancer and a germline BRCA alteration; design: method as in PMID 30110579; details: EMBRACA, cited from earlier work
[4] = design: method as in PMID 34388386; details: cited from earlier work
[5] = Western and Japanese patients; cited from earlier work

Cn1ncnc1[C@H]1c2n[nH]c(=O)c3cc(F)cc(c23)N[C@@H]1c1ccc(F)cc1 [talazoparib]
AUC (clinical): 86.5 ng·h/mL
AUC(0-inf) (clinical): 208 ng·h/mL
AUC(0-t) (clinical): 172 ng·h/mL
Cmax (clinical): 8.51 ng/mL
Tmax (clinical): 1.9 h
Vd/F (clinical): 457 L
half-life (clinical): 67 ± 11.8 h
Apparent volume of distribution of the central compartment ([1]; 4.79% interpatient variability): 162 L
Mean apparent oral clearance ([1]; 27.0% interpatient variability): 6.36 L/h
Patients with grade 3–4 treatment-related AEs ([2]; 10/19): 52.6%
Treatment-related AE: anemia ([2]; 13/19): 68.4%
Grade 5 AEs [2]: no grade 5 AEs
Patients with treatment-related AEs [2]: all patients experienced treatment-related AEs
Hazard ratio for disease progression or death ([3]; versus standard chemotherapy, 95% CI 0.41–0.71, P < 0.001): 0.54
Median progression-free survival ([3]; vs 5.6 months standard chemotherapy): 8.6 months
Grade 3–4 TEAE: neutropenia ([4]; TALAPRO-1, 10/127): 8%
Grade 3–4 TEAE: thrombocytopenia ([4]; TALAPRO-1, 11/127): 9%
Grade 3–4 TEAE: anemia ([4]; TALAPRO-1, 39/127): 31%
Maximum tolerated dose of monotherapy [5]: 1 mg QD
